Laboratory results: patent publication US20250304576A1 (Cancer Research Technology Limited, priority 2022, published 2025)

Legend:
Recombinant IKKβ = biological target: T1, Recombinant IKKβ (Homo sapiens, UniProt O14920); test: DELFIA IKKβ kinase assay (apparent Ki, Cheng-Prusoff); assay type: biochemical; conditions: DELFIA assay (first line of an example)
T1 construct: purchased Millipore, Dundee, UK
T1 sequence (O14920 1-756): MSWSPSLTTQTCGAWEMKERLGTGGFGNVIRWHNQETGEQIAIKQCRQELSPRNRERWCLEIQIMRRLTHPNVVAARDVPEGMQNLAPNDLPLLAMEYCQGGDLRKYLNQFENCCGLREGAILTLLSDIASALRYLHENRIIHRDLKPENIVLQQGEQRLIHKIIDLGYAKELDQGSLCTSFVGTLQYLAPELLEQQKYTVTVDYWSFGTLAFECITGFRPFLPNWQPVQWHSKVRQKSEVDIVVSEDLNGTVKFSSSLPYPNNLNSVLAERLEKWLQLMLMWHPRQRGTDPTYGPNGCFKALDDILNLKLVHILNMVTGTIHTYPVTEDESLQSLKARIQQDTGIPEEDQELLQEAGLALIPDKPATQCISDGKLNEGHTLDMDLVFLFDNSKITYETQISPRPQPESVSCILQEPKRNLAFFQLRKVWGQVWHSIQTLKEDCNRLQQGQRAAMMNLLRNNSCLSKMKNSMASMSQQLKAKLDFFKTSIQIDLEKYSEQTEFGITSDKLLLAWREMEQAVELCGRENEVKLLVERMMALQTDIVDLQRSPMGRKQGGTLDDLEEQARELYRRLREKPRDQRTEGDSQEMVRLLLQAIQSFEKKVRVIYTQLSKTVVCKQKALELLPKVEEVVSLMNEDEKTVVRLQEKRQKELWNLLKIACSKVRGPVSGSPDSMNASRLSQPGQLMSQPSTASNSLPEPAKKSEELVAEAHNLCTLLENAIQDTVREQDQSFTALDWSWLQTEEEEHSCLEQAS
In short: (§1)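 Recombinant IKKα or IKKβ (37 nM) with 0.375 μM biotinylated IκB-α (Ser32) peptide and 40 μM ATP in 40 mM Tris-HCl pH 7.5, 20 mM MgCl2, 60 min at 30° C. Phospho-substrate captured on streptavidin and detected by anti-phospho-IκB-α plus europium anti-mouse IgG time-resolved fluorescence; apparent Ki via Cheng-Prusoff.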

Recombinant IKKα = biological target: T2, Recombinant IKKα (Homo sapiens, UniProt O15111); test: DELFIA IKKα kinase assay (apparent Ki, Cheng-Prusoff); assay type: biochemical; conditions: DELFIA assay (first line of an example)
T2 construct: purchased Millipore, Dundee, UK
T2 sequence (O15111 1-745): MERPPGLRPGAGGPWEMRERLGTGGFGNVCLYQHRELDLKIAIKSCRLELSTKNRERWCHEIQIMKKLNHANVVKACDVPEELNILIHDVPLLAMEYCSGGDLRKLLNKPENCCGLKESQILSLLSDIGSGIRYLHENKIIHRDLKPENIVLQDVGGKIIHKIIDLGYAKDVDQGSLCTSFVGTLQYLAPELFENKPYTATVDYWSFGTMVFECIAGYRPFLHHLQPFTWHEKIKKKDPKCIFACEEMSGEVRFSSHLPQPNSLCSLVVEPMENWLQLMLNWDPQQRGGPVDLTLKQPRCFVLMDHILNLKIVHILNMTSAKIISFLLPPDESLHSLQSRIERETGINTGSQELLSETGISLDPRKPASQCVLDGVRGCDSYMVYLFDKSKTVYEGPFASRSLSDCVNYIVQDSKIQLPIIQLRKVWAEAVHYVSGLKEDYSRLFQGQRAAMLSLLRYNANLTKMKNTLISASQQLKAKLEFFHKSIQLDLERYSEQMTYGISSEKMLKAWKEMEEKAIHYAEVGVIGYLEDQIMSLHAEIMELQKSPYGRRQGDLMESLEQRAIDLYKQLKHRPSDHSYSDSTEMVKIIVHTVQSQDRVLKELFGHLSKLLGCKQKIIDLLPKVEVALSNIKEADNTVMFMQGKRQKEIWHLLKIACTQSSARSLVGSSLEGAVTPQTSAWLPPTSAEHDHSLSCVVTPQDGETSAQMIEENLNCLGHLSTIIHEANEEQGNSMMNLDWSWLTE
In short: as §1

SMILES | Ki (Recombinant IKKβ) [µM] | Ki (Recombinant IKKα) [µM]
Nc1n[nH]c2c(C#CCCCCOc3ccccc3)cc(-c3ccnc4[nH]ccc34)cc12 [Example 217, 7-(6-Phenoxyhex-1-yn-1-yl)-5-(1H-pyrrolo[2,3-b]pyridin-4-yl)-1H-indazol-3-amine] | 1.26 | 0.243
Nc1n[nH]c2ccc(-c3ccnc4[nH]c(Cc5ccccc5)cc34)cc12 [Example 223, 5-(2-Benzyl-1H-pyrrolo[2,3-b]pyridin-4-yl)-1H-indazol-3-amine] | 0.111 | 0.001
CC(C)(O)c1cc2c(-c3ccc4[nH]nc(N)c4c3)ccnc2[nH]1 [Example 225, 2-(4-(3-Amino-1H-indazol-5-yl)-1H-pyrrolo[2,3-b]pyridin-2-yl)propan-2-ol] | 0.419 | 0.026
CCC(O)(CC)c1cc2c(-c3ccc4[nH]nc(N)c4c3)ccnc2[nH]1 [Example 226, 3-(4-(3-Amino-1H-indazol-5-yl)-1H-pyrrolo[2,3-d]pyridin-2-yl)pentan-3-ol] | 0.922 | 0.095
COC(=O)c1cc2c(-c3ccc4[nH]nc(N)c4c3)ccnc2[nH]1 [Example 231, Methyl 4-(3-amino-1H-indazol-5-yl)-1H-pyrrolo[2,3-b]pyridine-2-carboxylate] | 0.419 | 0.009
CCOC(=O)c1cc2c(-c3ccc4[nH]nc(N)c4c3)ccnc2[nH]1 [Example 232, Ethyl 4-(3-amino-1H-indazol-5-yl)-1H-pyrrolo[2,3-b]pyridine-2-carboxylate] | 1.26 | 0.01
Nc1n[nH]c2ccc(-c3ccnc4[nH]c(C(=O)NC5CCCC5)cc34)cc12 [Example 235, 4-(3-Amino-1H-indazol-5-yl)-N-cyclopentyl-1H-pyrrolo[2,3-b]pyridine-2-carboxamide] | 0.07 | 0.006
CC(C)CCNC(=O)c1cc2c(-c3ccc4[nH]nc(N)c4c3)ccnc2[nH]1 [Example 237, 4-(3-amino-1H-indazol-5-yl)-N-isopentyl-1H-pyrrolo[2,3-b]pyridine-2-carboxamide] | 0.13 | 0.003
Nc1n[nH]c2ccc(-c3ccnc4[nH]c(C(=O)NCCc5ccccc5)cc34)cc12 [Example 238, 4-(3-Amino-1H-indazol-5-yl)-N-phenethyl-1H-pyrrolo[2,3-b]pyridine-2-carboxamide] | 0.09 | 0.023
Nc1n[nH]c2ccc(-c3ccnc4[nH]c(C(=O)NCCCc5ccccc5)cc34)cc12 [Example 239, 4-(3-Amino-1H-indazol-5-yl)-N-(3-phenylpropyl)-1H-pyrrolo[2,3-b]pyridine-2-carboxamide] | 0.06 | 0.005
COCCNC(=O)c1cc2c(-c3ccc4[nH]nc(N)c4c3)ccnc2[nH]1 [Example 240, 4-(3-Amino-1H-indazol-5-yl)-N-(2-methoxyethyl)-1H-pyrrolo[2,3-b]pyridine-2-carboxamide] | 0.03 | 0.005
NCCNC(=O)c1cc2c(-c3ccc4[nH]nc(N)c4c3)ccnc2[nH]1 [Example 241, 4-(3-Amino-1H-indazol-5-yl)-N-(2-aminoethyl)-1H-pyrrolo[2,3-b]pyridine-2-carboxamide] | 0.122 | 0.004
CN(C)CCNC(=O)c1cc2c(-c3ccc4[nH]nc(N)c4c3)ccnc2[nH]1 [Example 242, 4-(3-Amino-1H-indazol-5-yl)-N-(2-(dimethylamino)ethyl)-1H-pyrrolo[2,3-b]pyridine-2-carboxamide] | 0.377 | 0.008
Nc1n[nH]c2ccc(-c3ccnc4[nH]c(C(=O)NCCN5CCCCC5)cc34)cc12 [Example 244, 4-(3-Amino-1H-indazol-5-yl)-N-(2-(piperidin-1-yl)ethyl)-1H-pyrrolo[2,3-b]pyridine-2-carboxamide] | 0.109 | 0.008
CCCCN(CC)CCNC(=O)c1cc2c(-c3ccc4[nH]nc(N)c4c3)ccnc2[nH]1 [Example 245, 4-(3-Amino-1H-indazol-5-yl)-N-(2-(butyl(ethyl)amino)ethyl)-1H-pyrrolo[2,3-b]pyridine-2-carboxamide] | 0.193 | 0.029
CC(C)N(CCNC(=O)c1cc2c(-c3ccc4[nH]nc(N)c4c3)ccnc2[nH]1)C(C)C [Example 246, 4-(3-Amino-1H-indazol-5-yl)-N-(2-(diisopropylamino)ethyl)-1H-pyrrolo[2,3-b]pyridine-2-carboxamide] | 0.104 | 0.009
CN(C)CCCNC(=O)c1cc2c(-c3ccc4[nH]nc(N)c4c3)ccnc2[nH]1 [Example 247, 4-(3-Amino-1H-indazol-5-yl)-N-(3-(dimethylamino)propyl)-1H-pyrrolo[2,3-b]pyridine-2-carboxamide] | 0.046 | 0.008
CC(C)CCNCc1cc2c(-c3ccc4[nH]nc(N)c4c3)ccnc2[nH]1 [Example 249, 5-(2-((Isopentylamino)methyl)-1H-pyrrolo[2,3-b]pyridine-4-yl)-1H-indazol-3-amine] | 1.47 | 0.056
Nc1n[nH]c2ccc(-c3ccnc4[nH]c(CNc5ccccc5)cc34)cc12 [Example 252, 5-(2-((Phenylamino)methyl)-1H-pyrrolo[2,3-b]340yridine-4-yl)-1H-indazol-3-amine] | 0.059 | 0.006
Nc1n[nH]c2ccc(-c3ccnc4[nH]c(CNc5ccccc5COc5ccccc5)cc34)cc12 [Example 253, 5-(2-(((2-(Benzyloxy)phenyl)amino)methyl)-1H-pyrrolo[2,3-b]342yridine-4-yl)-1H-indazol-3-amine] | 0.33 | 0.005
COCCNCc1cc2c(-c3ccc4[nH]nc(N)c4c3)ccnc2[nH]1 [Example 254, 5-(2-(((2-Methoxyethyl)amino)methyl)-1H-pyrrolo[2,3-b]343yridine-4-yl)-1H-indazol-3-amine] | 0.389 | 0.018
CN(C)CCNCc1cc2c(-c3ccc4[nH]nc(N)c4c3)ccnc2[nH]1 [Example 255, N^1-((4-(3-Amino-1H-indazol-5-yl)-1H-pyrrolo[2,3-b]pyridin-2-yl)methyl)-N2,N2-dimethylethane-1,2-diamine] | 1.63 | 0.03
COCCCNCc1cc2c(-c3ccc4[nH]nc(N)c4c3)ccnc2[nH]1 [Example 256, 5-(2-(((3-methoxypropyl)amino)methyl)-1H-pyrrolo[2,3-b]pyridine-4-yl)-1H-indazol-3-amine] | 2.56 | 0.046
CC(C)OCCCNCc1cc2c(-c3ccc4[nH]nc(N)c4c3)ccnc2[nH]1 [Example 257, 5-(2-(((3-Isopropoxypropyl)amino)methyl)-1H-pyrrolo[2,3-b]346yridine-4-yl)-1H-indazol-3-amine] | 2.22 | 0.04
CC(C)(C)N1CCN(Cc2cc3c(-c4ccc5[nH]nc(N)c5c4)ccnc3[nH]2)CC1 [Example 264, 5-(2-((4-(tert-Butyl)piperazin-1-yl)methyl)-1H-pyrrolo[2,3-b]pyridin-4-yl)-1H-indazol-3-amine] | 0.285 | 0.005
Nc1n[nH]c2ccc(-c3ccnc4[nH]c(CCCNC5CCCCC5)cc34)cc12 [Example 270, 5-(2-(3-(Cyclohexylamino)propyl)-1H-pyrrolo[2,3-b]pyridin-4-yl)-1H-indazol-3-amine] | 0.065 | 0.004
